Measurements published in PMC10269871, “Small Molecule Inhibition of an Exopolysaccharide Modification Enzyme is a Viable Strategy To Block Pseudomonas aeruginosa Pel Biofilm Formation” (Microbiology Spectrum, 2023).

Biological target: T1, PelA (Pseudomonas aeruginosa, UniProt Q9HZE4)
T1 construct: PelAΔ46Chis6, residues 47 to 948, C-terminal His6
Assay: fluorogenic AMMU esterase assay with purified PelA, Michaelis-Menten global noncompetitive fit (IC50 […]); reversible by gel filtration
Format: biochemical

T1 sequence (Q9HZE4 entry or part of it): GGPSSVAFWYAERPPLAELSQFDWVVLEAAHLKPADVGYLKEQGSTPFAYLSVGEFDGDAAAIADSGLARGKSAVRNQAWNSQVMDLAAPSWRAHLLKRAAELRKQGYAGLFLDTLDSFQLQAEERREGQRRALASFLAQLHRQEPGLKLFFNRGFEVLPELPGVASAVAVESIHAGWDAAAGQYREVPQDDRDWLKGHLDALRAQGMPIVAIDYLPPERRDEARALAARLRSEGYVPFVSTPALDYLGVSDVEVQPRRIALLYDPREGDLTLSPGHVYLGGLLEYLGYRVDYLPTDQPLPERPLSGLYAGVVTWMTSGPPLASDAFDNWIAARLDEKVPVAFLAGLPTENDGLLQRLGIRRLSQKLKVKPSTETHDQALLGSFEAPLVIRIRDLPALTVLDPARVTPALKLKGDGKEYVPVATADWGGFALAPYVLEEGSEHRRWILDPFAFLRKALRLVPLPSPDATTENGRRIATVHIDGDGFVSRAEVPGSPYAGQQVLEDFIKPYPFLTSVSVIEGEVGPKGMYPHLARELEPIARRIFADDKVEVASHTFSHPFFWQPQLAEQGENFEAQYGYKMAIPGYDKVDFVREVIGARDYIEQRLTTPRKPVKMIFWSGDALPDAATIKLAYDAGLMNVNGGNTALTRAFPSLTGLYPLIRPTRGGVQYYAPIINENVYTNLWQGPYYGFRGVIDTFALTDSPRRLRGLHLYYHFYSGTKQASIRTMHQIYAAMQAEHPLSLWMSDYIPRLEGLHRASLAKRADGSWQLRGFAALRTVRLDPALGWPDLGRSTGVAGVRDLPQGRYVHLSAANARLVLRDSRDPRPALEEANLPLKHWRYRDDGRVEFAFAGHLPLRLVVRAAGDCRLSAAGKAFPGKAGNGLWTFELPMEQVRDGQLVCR

In the case of CSC(=S)N/N=C/c1ccccn1 [SK-017154-O, methyl 2-(2-pyridinylmethylene) hydrazinecarbodithioate], the Ki is reported as 1130 ± 30 nM.
